The source of these data is patent publication US20180280370A1, “DOSAGE REGIMEN FOR A PHOSPHATIDYLINOSITOL 3-KINASE INHIBITOR” (Novartis AG, priority 2015, published 2018).

Data set [1] is described as follows: Plasma PK after oral administration in freely moving catheterized rats with automated blood sampling. Conditions: day 1 or 4 (steady state), 50 mg/kg p.o. qd; 2, 4, 6, 8, 10, 12, 18 and 24h post treatment. It is filed as in vivo, Brown Norway rats. An excerpt:
Determination of Pharmacokinetic (PK) Parameters after Oral Administration of Compound A in Freely Moving Catheterized Rats Using Automated Blood Sampling (ABS) Technology:
The highly automated ABS system (Instech ABS2™) allows for unattended blood sample collection via an in-dwelling venous catheter placed in the jugular or femoral vein. For all animals, cannulas were filled with 1:1 heparin glycerol solution when not on study. The ABS freely-moving system is a well-recognized method to reduce stress during blood sampling and it only marginally impedes the animal in its freedom to move, drink, eat and sleep. Furthermore, this method allows obtaining pharmacokinetic parameters at night time (active phase of the animal).
(§1) Absolute values for primary tumor growth and body weight were used to make the statistical comparisons between groups (one way ANOVA followed by Dunnett's test for normally distributed data; ANOVA on Ranks for not normally distributed data followed by Dunnett's test for equal group size or Dunn's for unequal group size). Absolute values for blood glucose (calculated mean over 6 hours' time periods) and PK data were used to make the statistical comparisons between groups (two-tailed Student's t-tests). The significant level was set at p<0.05. All statistical calculations were carried out using SigmaStat.

For data set [2], the system named is Rat1-myr-p110α subcutaneous xenografts. The data set can be described thus: Antitumor efficacy in Rat1-myr-p110α tumor bearing nude rats. In kind it is in vivo. The settings on record: for body weight changes, 10 A.M. vs 5 p.m. dosing / tumor volume inhibition, 10 A.M. (ALTERNATIVE SCHEDULE 1) vs 5 p.m. dosing: 14 consecutive days. Here is the method:
Animals and maintenance conditions: Experiments were performed in female nude Rowett rats Hsd: RH-Fox1rnu or female Brown-Norway (BN) rats (Harlan (The Netherlands). Animals were 6-9 weeks of age at time of application of the compound. Animals were housed under Optimized Hygienic Conditions in Makrolon type III cages (max. 2 animals per cage) with free access to food and water. They were allowed to adapt for at least 6 days before the experiment was started. Cell line and cell culture: Rat1-Myr-p110α cells were grown in Dulbecco's Modified Eagle Medium (DMEM) culture medium containing 4.5 g/l glucose supplemented with 10% heat-inactivated fetal calf serum (FCS), 2 mM L-glutamine, 1 mM sodium pyruvate and incubated at 37° C. in a 5% CO2 humidified atmosphere. Cells were harvested with trypsin-EDTA, re-suspended in culture medium (with additives) and counted with a Casy® system. Finally, cells were centrifuged, suspended in ice-cold Hanks' balanced salt solution (HBSS) at a concentration of 3×10^7 cells/ml. Cell culture reagents were purchased from BioConcept (Allschwil, Switzerland). Rat1-myr-p110α cells were generated by the method described in Maira et al., Molecular Cancer Therapeutics, 11:317-328 (2012), which is incorporated herein by reference in its entirety. Briefly, Rat1 cells were transfected to stably express the constitutively active form of the catalytic PI3K class I p110 isoforms a by addition of a myristylation signal to the N-terminus. Rat1-Myr-p110α tumors were established by subcutaneous injection of […] in 100 μL HBSS (Sigma #H8264) into the right flank of nude rats. For the efficacy experiments, treatments were initiated when the mean tumor volumes were approx. 900-1200 mm^3 (21 to 23 days post tumor cells injection). Compound A was prepared for dosing as homogenous suspensions in 1% carboxymethyl cellulose: 0.5% Tween® 80: 98.5% deionized water. Fresh suspensions were prepared once every 7 days and stored at 4° C. Compound A or vehicle was administered orally at a volume of 10 mL/kg. Tumor volumes were measured with calipers and determined according to the formula: length×diameter^2×π/6. In addition to presenting changes of tumor volumes over the course of treatments, antitumor activity is expressed as T/C % (mean change of tumor volume of treated animals/mean change of tumor volume of control animals)×100. Regressions (%) were calculated according to the formula ((mean tumor volume at end of treatment−mean tumor volume at start of treatment)/mean tumor volume at start of treatment)×100. Body weights and tumor volumes were recorded two to three times a week. Absolute values for primary tumor growth and body weight were used to make the statistical comparisons between groups (one way ANOVA followed by Dunnett's test for normally distributed data; ANOVA on Ranks for not normally distributed data followed by Dunnett's test for equal group size or Dunn's for unequal group size). Absolute values for blood glucose (calculated mean over 6 hours' time periods) and PK data were used to make the statistical comparisons between groups (two-tailed Student's t-tests). The significant level was set at p<0.05. All statistical calculations were carried out using SigmaStat.

The test system of data set [3] is advanced solid malignancies carrying an alteration in the PIK3CA gene. Conditions: cited from earlier work.
Data set [4] in a line: Continuous blood glucose measurement via radio-telemetry in conscious freely moving rats. In kind it is in vivo, Brown Norway rats. The settings on record: for normalization of blood glucose in between 2 doses: steady state. On the procedure:
Animals and maintenance conditions: Experiments were performed in female nude Rowett rats Hsd: RH-Fox1rnu or female Brown-Norway (BN) rats (Harlan (The Netherlands). Animals were 6-9 weeks of age at time of application of the compound. Animals were housed under Optimized Hygienic Conditions in Makrolon type III cages (max. 2 animals per cage) with free access to food and water. They were allowed to adapt for at least 6 days before the experiment was started.
Compound A was prepared for dosing as homogenous suspensions in 1% carboxymethyl cellulose: 0.5% Tween® 80: 98.5% deionized water. Fresh suspensions were prepared once every 7 days and stored at 4° C. Compound A or vehicle was administered orally at a volume of 10 mL/kg.
Blood Glucose Measurements Via Radio-Telemetry Technology (HD-XG Radio Telemetry Transmitter; Data Sciences International):
Blood glucose levels were measured continuously in conscious non-restrained freely moving rats by the method described in Brockway et al., Journal of Diabetes Science and Technology., 9(4):771-81 (2015), which is incorporated herein by reference in its entirety. Briefly, the 1.4 cc telemetry device provides direct continuous blood glucose readings along with temperature and activity for 4 weeks or longer. The device was used in non-tumor bearing Brown Norway (BN) rats. Each animal was surgically instrumented with glucose sensors in the abdominal aorta and the device placed in the intraperitoneal cavity. Continuous glucose readings were recorded with the Dataquest A.R.T. data acquisition system. Reference glucose values were measured from tail vein blood samples using the Nova StatStrip glucometer twice per week. Each animal was measured in cyclic runs of 1 minute for 10 seconds with a sampling rate of 1 Hz. Mean values for blood glucose levels, body temperature and motor activity were then computed and stored. Fifteen minutes or hourly averages were determined using the interval averaging routine on the Dataquest Analysis Software (Dataquest A.R.T, version 4.36; Data Sciences). Blood glucose values are expressed in mmol/L, body temperature in degree Celsius (° C.) and motor activity in number of movements (units) per minute.
as §1

The test system of data set [5] is advanced solid tumors. The settings on record: cited from earlier work.
Where [6] appears, read: daily administration, human patients.

Read-outs that look alike come from different tables or passages of the source.

As for `Cc1nc(NC(=O)N2CCC[C@H]2C(N)=O)sc1-c1ccnc(C(C)(C)C(F)(F)F)c1` [Compound A, (S)-Pyrrolidine-1,2-dicarboxylic acid 2-amide 1-({4-methyl-5-[2-(2,2,2-trifluoro-1,1-dimethyl-ethyl)-pyridin-4-yl]-thiazol-2-yl}-amide)], the “plasma PK profile, 10 AM vs 5 PM dosing” value in data set [1] is reported as “did not revealed any significant differences”. In data set [2] (14 mg/kg p.o. qd, 2 weeks of treatment), the anti-tumor efficacy result is “stasis”. The “body weight changes, 10 A.M. vs 5 p.m. dosing” value in data set [2] (14 mg/kg p.o. qd) and in data set [2] (25 mg/kg p.o. qd) was “very similar pattern” each time. The “tumor volume inhibition, 10 A.M. (ALTERNATIVE SCHEDULE 1) vs 5 p.m. dosing” value in data set [2] (14 mg/kg p.o. qd) and in data set [2] (25 mg/kg p.o. qd) was “No significant differences” throughout. In addition, the tumor regression in data set [2] (25 mg/kg p.o. qd, 2 weeks of treatment) is 50%. The “Disease control rate (complete response, partial response or stable disease)” value in data set [3] (150 mg/BID, 95% CI: 38.4-88.2) is 66.7%; in data set [3] (400 mg/QD, 95% CI: 40.1-66.0), 53.2%. Further, the confirmed partial responses is 2 patients in data set [3] (150 mg/BID); 2 patients in data set [3] (270 mg/QD); 1 patients in data set [3] (350 mg/QD); 2 patients in data set [3] (400 mg/QD); 7 patients in data set [3] (all doses, of 132 evaluable patients). The MTD in data set [3] (QD, in patients) is recorded as 400 mg. Moreover, the “patients with induced hyperglycemia” value in data set [3] (setting [6]) is reported as 49%. Further, the “partial responses to treatment” value in data set [3] (of 132 evaluable patients, as of Mar. 10, 2014, oral 30-450 mg q.d. or 120-200 mg b.i.d.) was 15 patients. In addition, the “normalization of blood glucose in between 2 doses” value in data set [4] (50 mg/kg p.o. qd, dosing before the active phase (5 p.m.)) is listed as “could not be achieved”; in data set [4] (50 mg/kg p.o. qd, dosing before the inactive phase (10 a.m.)), “allowed blood glucose to normalize in between 2 doses”. The “change in glucose level” value in data set [4] (50 mg/kg p.o. qd, steady state (Day 4), n=6) is “transient glucose level increase”. For the same compound, the “effect on blood glucose levels” value in data set [4] (day 1 of treatment, 50 mg/kg p.o. qd dosed at 5 PM (active phase)) is “slight hyperglycemia”; in data set [4] (day 1 of treatment, 50 mg/kg p.o. qd dosed at 10 AM (inactive phase)) it was “slight hyperglycemia”; in data set [4] (steady state (Day 4-5 of daily treatment), 50 mg/kg p.o. qd) it was “transient hyperglycemia profile”. For the same compound, the “period of remaining transient hyperglycemia after treatment discontinuation” value in data set [4] (recovery day 1, group dosed before the active phase (5 p.m.), 50 mg/kg p.o. qd) is “up to 12 h”. Moreover, the “blood glucose after treatment discontinuation” value in data set [4] (start of recovery day 1, group dosed before the inactive phase (10 a.m.), 50 mg/kg p.o. qd) is “already normalized to baseline levels”.

With `Nc1cc(C(F)(F)F)c(-c2cc(N3CCOCC3)nc(N3CCOCC3)n2)cn1` [Compound B, 4-(trifluoromethyl)-5-(2,6-dimorpholinopyrimidin-4-yl)pyridin-2-amine], the “patients with induced hyperglycemia” value in data set [5] (setting [6]) is recorded as 31%. Further, in data set [5] (parotid gland carcinoma, epithelioid hemangiothelioma, ER+ breast cancer), the unconfirmed partial responses result was “three”. Further, in data set [5] (triple-negative breast cancer, 83 patients enrolled), the confirmed partial response result is on record as “One”.
